# Reference: paper PMC5218480 (PLoS ONE, 2017)
# System: MV-4-11 cells
# Assay: Gene expression microarray analysis (Affymetrix PrimeView) and GSEA
# Assay type: cell-based, human
# Set-up: RFU PODN (11730768_x_at) / Fold change /veh PODN (11730768_x_at) / RFU LINC00158 (11744669_a_at) / Fold change /veh LINC00158 (11744669_a_at) / RFU DUSP10 (11751237_a_at) / Fold change /veh DUSP10 (11751237_a_at) / RFU ID3 (11757404_x_at) / Fold change /veh ID3 (11757404_x_at) / RFU PLEKHG5 (11737974_s_at) / Fold change /veh PLEKHG5 (11737974_s_at) / RFU LRRC4B (11730491_at) / Fold change /veh LRRC4B (11730491_at) / RFU GIMAP4 (11747438_a_at) / Fold change /veh GIMAP4 (11747438_a_at) / RFU KRT8 (11758183_x_at) / Fold change /veh KRT8 (11758183_x_at) / RFU CNN1 (11734310_a_at) / Fold change /veh CNN1 (11734310_a_at) / RFU VPS37D (11726825_at) / Fold change /veh VPS37D (11726825_at) / RFU C10orf10 (11716522_x_at) / Fold change /veh C10orf10 (11716522_x_at) / RFU KIR2DL2 /// KIR2DL4 /// KIR2DL5A /// KIR2DL5B /// KIR2DS1 /// KIR2DS2 /// KIR2DS3 /// KIR2DS4 /// KIR3DL3 /// KIR3DL3 /// KIR3DS1 (11738374_at) / Fold change /veh KIR2DL2 /// KIR2DL4 /// KIR2DL5A /// KIR2DL5B /// KIR2DS1 /// KIR2DS2 /// KIR2DS3 /// KIR2DS4 /// KIR3DL3 /// KIR3DL3 /// KIR3DS1 (11738374_at) / RFU C1QL1 (11718748_at) / Fold change /veh C1QL1 (11718748_at) / RFU TMPRSS4 (11747572_a_at) / Fold change /veh TMPRSS4 (11747572_a_at) / RFU HAMP (11756126_x_at) / Fold change /veh HAMP (11756126_x_at) / RFU RNFT2 (11725882_a_at) / Fold change /veh RNFT2 (11725882_a_at) / RFU NR4A2 (11747474_a_at) / Fold change /veh NR4A2 (11747474_a_at) / RFU ABCC12 (11746883_a_at) / Fold change /veh ABCC12 (11746883_a_at) / RFU TMEM136 (11760407_x_at) / Fold change /veh TMEM136 (11760407_x_at) / RFU CLDN22 /// WWC2 (11732394_at) / Fold change /veh CLDN22 /// WWC2 (11732394_at) / RFU HLA-DPB1 (11760878_x_at) / Fold change /veh HLA-DPB1 (11760878_x_at) / RFU SPINT1 (11716480_a_at) / Fold change /veh SPINT1 (11716480_a_at) / RFU GAP43 (11754022_s_at) / Fold change /veh GAP43 (11754022_s_at) / RFU A4GNT (11735810_at) / Fold change /veh A4GNT (11735810_at) / RFU PRB3 (11715151_x_at) / Fold change /veh PRB3 (11715151_x_at) / RFU TUBB4B (11761932_at) / Fold change /veh TUBB4B (11761932_at) / RFU CAPN14 (11732068_a_at) / Fold change /veh CAPN14 (11732068_a_at) / RFU TMCC2 (11721928_a_at) / Fold change /veh TMCC2 (11721928_a_at) / RFU IRGQ (11745062_a_at) / Fold change /veh IRGQ (11745062_a_at) / RFU FAM174B (11720279_a_at) / Fold change /veh FAM174B (11720279_a_at) / RFU TMPRSS4 (11748680_a_at) / Fold change /veh TMPRSS4 (11748680_a_at) / RFU FAM212B (11763350_a_at) / Fold change /veh FAM212B (11763350_a_at) / RFU PLEKHG5 (11743358_a_at) / Fold change /veh PLEKHG5 (11743358_a_at) / RFU ZSCAN30 (11745921_a_at) / Fold change /veh ZSCAN30 (11745921_a_at) / RFU CMKLR1 (11741424_a_at) / Fold change /veh CMKLR1 (11741424_a_at) / RFU LOC101060620 /// MAPK8IP1 (11723275_at) / Fold change /veh LOC101060620 /// MAPK8IP1 (11723275_at) / RFU SPTSSB (11747773_x_at) / Fold change /veh SPTSSB (11747773_x_at) / RFU PRSS12 (11739890_at) / Fold change /veh PRSS12 (11739890_at) / RFU BIN1 (11741810_x_at) / Fold change /veh BIN1 (11741810_x_at) / RFU WNT11 (11732464_a_at) / Fold change /veh WNT11 (11732464_a_at) / RFU C10orf10 (11716521_a_at) / Fold change /veh C10orf10 (11716521_a_at) / RFU C5orf56 (11738089_at) / Fold change /veh C5orf56 (11738089_at) / RFU CYB561 (11721691_x_at) / Fold change /veh CYB561 (11721691_x_at) / RFU ANKRD19P (11752326_a_at) / Fold change /veh ANKRD19P (11752326_a_at) / RFU OR2T12 /// OR2T33 /// OR2T8 (11738714_s_at) / Fold change /veh OR2T12 /// OR2T33 /// OR2T8 (11738714_s_at) / RFU VCAN (11748164_a_at) / Fold change /veh VCAN (11748164_a_at) / RFU JSRP1 (11732532_at) / Fold change /veh JSRP1 (11732532_at) / RFU KRTAP10-11 (11738290_x_at) / Fold change /veh KRTAP10-11 (11738290_x_at) / RFU MYO3A (11730013_a_at) / Fold change /veh MYO3A (11730013_a_at) / RFU EBF3 (11725865_a_at) / Fold change /veh EBF3 (11725865_a_at) / RFU CAMK2N1 (11719241_x_at) / Fold change /veh CAMK2N1 (11719241_x_at) / RFU C5orf56 (11738088_a_at) / Fold change /veh C5orf56 (11738088_a_at) / RFU OLFML3 (11715873_a_at) / Fold change /veh OLFML3 (11715873_a_at) / RFU LOC100653217 /// NTM (11731650_a_at) / Fold change /veh LOC100653217 /// NTM (11731650_a_at) / RFU MAPK11 (11762145_a_at) / Fold change /veh MAPK11 (11762145_a_at) / RFU FIZ1 (11724087_x_at) / Fold change /veh FIZ1 (11724087_x_at) / RFU OASL (11726364_x_at) / Fold change /veh OASL (11726364_x_at) / RFU SOX15 (11748057_x_at) / Fold change /veh SOX15 (11748057_x_at) / RFU CD79A (11719716_a_at) / Fold change /veh CD79A (11719716_a_at) / RFU HIST1H1D (11736915_at) / Fold change /veh HIST1H1D (11736915_at) / RFU CASKIN2 (11723855_a_at) / Fold change /veh CASKIN2 (11723855_a_at) / RFU LOC730098 (11760151_x_at) / Fold change /veh LOC730098 (11760151_x_at) / RFU OR4N2 (11742367_at) / Fold change /veh OR4N2 (11742367_at) / RFU PRRT2 (11749266_a_at) / Fold change /veh PRRT2 (11749266_a_at) / RFU SNX32 (11753110_a_at) / Fold change /veh SNX32 (11753110_a_at) / RFU CDHR5 (11726645_a_at) / Fold change /veh CDHR5 (11726645_a_at) / RFU RCAN1 (11760418_a_at) / Fold change /veh RCAN1 (11760418_a_at) / RFU FAM167A (11723789_a_at) / Fold change /veh FAM167A (11723789_a_at) / RFU FAM26E (11764081_at) / Fold change /veh FAM26E (11764081_at) / RFU ISYNA1 (11749810_s_at) / Fold change /veh ISYNA1 (11749810_s_at) / RFU ACY1 (11761880_at) / Fold change /veh ACY1 (11761880_at) / RFU 11764098_at / Fold change /veh 11764098_at / RFU SAMD14 (11745864_x_at) / Fold change /veh SAMD14 (11745864_x_at) / RFU NPB (11741838_a_at) / Fold change /veh NPB (11741838_a_at) / RFU TMPRSS6 (11731388_a_at) / Fold change /veh TMPRSS6 (11731388_a_at) / RFU KRTAP10-2 (11738614_at) / Fold change /veh KRTAP10-2 (11738614_at) / RFU ARHGAP8 /// PRR5-ARHGAP8 (11727945_x_at) / Fold change /veh ARHGAP8 /// PRR5-ARHGAP8 (11727945_x_at) / RFU KRTAP5-7 /// NADSYN1 (11734609_at) / Fold change /veh KRTAP5-7 /// NADSYN1 (11734609_at) / RFU RASL12 (11751679_a_at) / Fold change /veh RASL12 (11751679_a_at) / RFU CDKN2B (11736163_a_at) / Fold change /veh CDKN2B (11736163_a_at) / RFU PRF1 (11729649_at) / Fold change /veh PRF1 (11729649_at) / RFU, ZNF638 /// ZNF638-IT1 / Fold change vs veh, ZNF638 /// ZNF638-IT1 / RFU, PANK3 / Fold change vs veh, PANK3 / RFU, SH3YL1 / Fold change vs veh, SH3YL1 / RFU, ZEB2 / Fold change vs veh, ZEB2 / RFU, NRIP1 / Fold change vs veh, NRIP1 / RFU, PTTG1IP / Fold change vs veh, PTTG1IP / RFU, CAPN2 / Fold change vs veh, CAPN2 / RFU, MED14 / Fold change vs veh, MED14 / RFU, SNORA58 / Fold change vs veh, SNORA58 / RFU, C1orf63 / Fold change vs veh, C1orf63 / RFU, LRRFIP1 / Fold change vs veh, LRRFIP1 / RFU, NDUFAF7 / Fold change vs veh, NDUFAF7 / RFU, SLC12A2 / Fold change vs veh, SLC12A2 / RFU, IBTK / Fold change vs veh, IBTK / RFU, ESF1 / Fold change vs veh, ESF1 / Fold change vs veh, TMEM50B / RFU, TAOK1 / Fold change vs veh, TAOK1 / RFU, ACBD3 / Fold change vs veh, ACBD3 / RFU, TMA16 / Fold change vs veh, TMA16 / RFU, RWDD3 / Fold change vs veh, RWDD3 / RFU, BCAT1 / Fold change vs veh, BCAT1 / RFU, EDEM3 / Fold change vs veh, EDEM3 / RFU, TMEM33 / Fold change vs veh, TMEM33 / RFU, WDR75 / Fold change vs veh, WDR75 / RFU, AHCTF1 / Fold change vs veh, AHCTF1 / RFU, TFRC / Fold change vs veh, TFRC / RFU, ZDHHC17 / Fold change vs veh, ZDHHC17 / RFU, NOM1 / Fold change vs veh, NOM1 / RFU, ARL8B / Fold change vs veh, ARL8B / RFU, ZBTB11 / Fold change vs veh, ZBTB11 / RFU, TAMM41 / Fold change vs veh, TAMM41 / RFU, KIAA1704 /// LOC100996395 / Fold change vs veh, KIAA1704 /// LOC100996395 / RFU, ING1 / Fold change vs veh, ING1 / RFU, TRMT61B / Fold change vs veh, TRMT61B / RFU, FUBP3 / Fold change vs veh, FUBP3 / RFU, TP53 / Fold change vs veh, TP53 / RFU, TNKS2 / Fold change vs veh, TNKS2 / RFU, ZFP14 / Fold change vs veh, ZFP14 / RFU, ACTR2 / Fold change vs veh, ACTR2 / RFU, PPP3R1 / Fold change vs veh, PPP3R1 / RFU, PIK3R1 / Fold change vs veh, PIK3R1 / RFU, HNRNPA1 / Fold change vs veh, HNRNPA1 / RFU, RNF170 / Fold change vs veh, RNF170 / RFU, ZNF28 / Fold change vs veh, ZNF28 / RFU, RNGTT / Fold change vs veh, RNGTT / RFU, OGT / Fold change vs veh, OGT / RFU, BRD1 / Fold change vs veh, BRD1 / RFU, MARS / Fold change vs veh, MARS / RFU, ZNF655 / Fold change vs veh, ZNF655 / RFU, FAHD1 / Fold change vs veh, FAHD1 / RFU, BDP1 / Fold change vs veh, BDP1 / RFU, LRRCC1 / Fold change vs veh, LRRCC1 / RFU, ARID1A / Fold change vs veh, ARID1A / RFU, ZNF146 / Fold change vs veh, ZNF146 / RFU, ZNF330 / Fold change vs veh, ZNF330 / RFU, GPN3 / Fold change vs veh, GPN3 / RFU, C9orf123 / Fold change vs veh, C9orf123 / RFU, N4BP2L2 / Fold change vs veh, N4BP2L2 / RFU, ARFIP1 / Fold change vs veh, ARFIP1 / RFU, FAM179B / Fold change vs veh, FAM179B / RFU, BCL10 / Fold change vs veh, BCL10 / RFU, UHRF1BP1L / Fold change vs veh, UHRF1BP1L / RFU, BET1 / Fold change vs veh, BET1 / RFU, CNOT2 / Fold change vs veh, CNOT2 / RFU, ZNF268 / Fold change vs veh, ZNF268 / Fold change vs veh, ZNF507 / RFU, DGCR2 / Fold change vs veh, DGCR2 / RFU, WDSUB1 / Fold change vs veh, WDSUB1 / Fold change vs veh, HSP90B1 /// MIR3652 / RFU, ADSS / Fold change vs veh, ADSS / RFU, GK / Fold change vs veh, GK / RFU, ZNF148 / Fold change vs veh, ZNF148 / RFU, TAF9 / Fold change vs veh, TAF9 / RFU, SLC1A5 / Fold change vs veh, SLC1A5 / RFU, SLMO2 / Fold change vs veh, SLMO2 / RFU, ABCC4 / Fold change vs veh, ABCC4 / RFU, LOC101060439 /// RAP1B / Fold change vs veh, LOC101060439 /// RAP1B / RFU, RFX7 / Fold change vs veh, RFX7 / RFU, GTPBP10 / Fold change vs veh, GTPBP10 / RFU, CNEP1R1 / Fold change vs veh, CNEP1R1 / RFU, BIVM-ERCC5 /// ERCC5 / Fold change vs veh, BIVM-ERCC5 /// ERCC5 / RFU, ILF3 / Fold change vs veh, ILF3 / RFU 11762660_at / Fold change /veh 11762660_at / RFU VCAN (11757783_s_at) / Fold change /veh VCAN (11757783_s_at) / RFU DDX43 (11728927_at) / Fold change /veh DDX43 (11728927_at) / RFU KRT8 (11758188_x_at) / Fold change /veh KRT8 (11758188_x_at) / RFU NKD1 (11759106_at) / Fold change /veh NKD1 (11759106_at) / RFU SRD5A1 (11742802_a_at) / Fold change /veh SRD5A1 (11742802_a_at) / RFU TPSAB1 /// TPSB2 (11721975_s_at) / Fold change /veh TPSAB1 /// TPSB2 (11721975_s_at) / RFU GSTM3 (11746129_a_at) / Fold change /veh GSTM3 (11746129_a_at) / RFU IL23R (11737362_x_at) / Fold change /veh IL23R (11737362_x_at) / RFU TMEM51 (11727254_a_at) / Fold change /veh TMEM51 (11727254_a_at) / RFU PIWIL2 (11732686_x_at) / Fold change /veh PIWIL2 (11732686_x_at) / RFU ORM1 (11744905_x_at) / Fold change /veh ORM1 (11744905_x_at) / RFU CCDC152 (11743942_at) / Fold change /veh CCDC152 (11743942_at) / RFU ECM1 (11717891_a_at) / Fold change /veh ECM1 (11717891_a_at) / RFU IL23R (11748794_a_at) / Fold change /veh IL23R (11748794_a_at) / RFU TNFAIP8L3 (11732012_x_at) / Fold change /veh TNFAIP8L3 (11732012_x_at) / RFU MBOAT4 (11741988_at) / Fold change /veh MBOAT4 (11741988_at) / RFU 11764193_at / Fold change /veh 11764193_at / RFU TMEM53 (11763286_at) / Fold change /veh TMEM53 (11763286_at) / RFU MAGEB2 (11727129_at) / Fold change /veh MAGEB2 (11727129_at) / RFU TMEM200A (11744735_a_at) / Fold change /veh TMEM200A (11744735_a_at) / RFU CCDC152 (11751479_a_at) / Fold change /veh CCDC152 (11751479_a_at) / RFU FAM211A (11726209_a_at) / Fold change /veh FAM211A (11726209_a_at) / RFU RGS16 (11746705_a_at) / Fold change /veh RGS16 (11746705_a_at) / RFU VCAN (11755009_s_at) / Fold change /veh VCAN (11755009_s_at) / RFU RHOB (11743442_s_at) / Fold change /veh RHOB (11743442_s_at) / RFU RGS16 (11720943_a_at) / Fold change /veh RGS16 (11720943_a_at) / RFU RGS16 (11720944_at) / Fold change /veh RGS16 (11720944_at) / RFU, VPS4B / Fold change vs veh, VPS4B / RFU, CREB1 / Fold change vs veh, CREB1 / RFU, DNAJC13 / Fold change vs veh, DNAJC13 / RFU, GNAQ / Fold change vs veh, GNAQ / RFU, CDK5R1 / Fold change vs veh, CDK5R1 / RFU, ZRANB3 / Fold change vs veh, ZRANB3 / RFU, CUL4A / Fold change vs veh, CUL4A / RFU, CCNY / Fold change vs veh, CCNY / RFU, UFL1 / Fold change vs veh, UFL1 / RFU, COG3 / Fold change vs veh, COG3 / RFU, DIAPH2 / Fold change vs veh, DIAPH2 / RFU, SKA2 / Fold change vs veh, SKA2 / RFU, AFF3 / Fold change vs veh, AFF3 / RFU, LMF1 / Fold change vs veh, LMF1 / RFU, IPO11 / Fold change vs veh, IPO11 / RFU, DFFB / Fold change vs veh, DFFB / RFU, FOXP1 / Fold change vs veh, FOXP1 / RFU, CARD8 / Fold change vs veh, CARD8 / RFU, STRN3 / Fold change vs veh, STRN3 / RFU, ADK / Fold change vs veh, ADK / RFU, RASSF2 / Fold change vs veh, RASSF2 / RFU, WIPF1 / Fold change vs veh, WIPF1 / RFU, LARP1B / Fold change vs veh, LARP1B / RFU, RASA1 / Fold change vs veh, RASA1 / RFU, RB1 / Fold change vs veh, RB1 / RFU, PPFIA1 / Fold change vs veh, PPFIA1 / RFU, MAT2A / Fold change vs veh, MAT2A / RFU, CCT5 / Fold change vs veh, CCT5 / RFU, WDR92 / Fold change vs veh, WDR92 / RFU, CUX1 / Fold change vs veh, CUX1 / RFU, TTC7A / Fold change vs veh, TTC7A / RFU, TMEM135 / Fold change vs veh, TMEM135 / RFU, DEPTOR / Fold change vs veh, DEPTOR / RFU, CPM / Fold change vs veh, CPM / RFU, DNAJB6 / Fold change vs veh, DNAJB6 / RFU, CACNA2D3 / Fold change vs veh, CACNA2D3 / RFU, DTX4 / Fold change vs veh, DTX4 / RFU, TFCP2 / Fold change vs veh, TFCP2 / RFU, GMCL1 /// GMCL1P1 / Fold change vs veh, GMCL1 /// GMCL1P1 / RFU, AEBP2 / Fold change vs veh, AEBP2 / RFU, SNHG1 /// SNORD22 /// SNORD25 /// SNORD26 /// SNORD27 /// SNORD28 /// SNORD29 /// SNORD31 / Fold change vs veh, SNHG1 /// SNORD22 /// SNORD25 /// SNORD26 /// SNORD27 /// SNORD28 /// SNORD29 /// SNORD31 / Fold change (Aza/veh), C12orf56 (ProbeSet 11735607_a_at) / Fold change (ACY-1035/veh), C12orf56 (ProbeSet 11735607_a_at) / Fold change (Aza/veh), FGFR1OP (ProbeSet 11751329_s_at) / Fold change (ACY-1035/veh), FGFR1OP (ProbeSet 11751329_s_at) / Fold change (Aza/veh), VPS36 (ProbeSet 11739960_a_at) / Fold change (ACY-1035/veh), VPS36 (ProbeSet 11739960_a_at) / RFU SYPL1 (11715823_x_at) / Fold change /veh SYPL1 (11715823_x_at) / RFU IGFBP7 (11715501_s_at) / Fold change /veh IGFBP7 (11715501_s_at) / RFU REEP3 (11722064_at) / Fold change /veh REEP3 (11722064_at) / RFU IGLL1 (11728026_x_at) / Fold change /veh IGLL1 (11728026_x_at): dose or concentration left out as unconfirmed
# Details: ProbeSet 11749645_x_at; LIST B
structure (smiles),measurement,value
Nc1ccc(-c2cccs2)cc1NC(=O)c1ccc2c(c1)cc(C1CC1)n2CCN1CCOCC1 [ACY-1035],"Fold change vs veh, ZNF268",0.87
